Assay [1] relates to A549. Nature of the assay: Cytotoxicity against human A549 cells assessed as cell growth inhibition incubated for 48 hrs by MTT assay. It counts as functional, cell-based. Particulars: A549, 48 h. In general terms: Tetrazolium assays rely on reduction of a dye to a coloured formazan, in cell work by metabolically active cells.
The subject of assay [2] is NUGC-3. The assay is described as follows: Cytotoxicity against human NUGC-3 cells assessed as cell growth inhibition by measuring lethal dose incubated for 30 mins by MTT assay. Conditions: NUGC-3, 0.5 h, read-out: LD50 (the source's name). It is filed as functional.
Assay [3] has as its system P388. Nature of the assay: Cytotoxicity against mouse P388 cells. It is filed as functional, cell-based. Conditions: Mus musculus, P388; read-out: IC50.
Assay [4] relates to B16. The assay is described as follows: Cytotoxicity against mouse B16 cells. Conditions: Mus musculus, B16; read-out: IC50. It counts as functional, cell-based.
For assay [5], the system named is P388/ADM. The assay is described as follows: Cytotoxicity against mouse P388/ADM cells. It counts as functional, cell-based. Particulars: Mus musculus, P388/ADM; read-out: IC50.
The test system of assay [6] is HeLa S3. Nature of the assay: Cytotoxicity against human HeLa S3 cells. It counts as functional, cell-based. Conditions: Homo sapiens, HeLa S3; read-out: IC50.
For assay [7], the system named is NCI-H69. Nature of the assay: Cytotoxicity against human NCI-H69 cells. It counts as functional, cell-based. Conditions: Homo sapiens, NCI-H69; read-out: IC50.
The test system of assay [8] is IGROV-1. Nature of the assay: Antiproliferative activity against human IGROV-1 cells assessed as inhibition of cell growth incubated for 72 hrs by Coulter counter assay. It is filed as functional, cell-based. Conditions: IGROV-1, 72 h.
In assay [9] the target is RAC-alpha serine/threonine-protein kinase (Homo sapiens, UniProt P31749). Nature of the assay: Inhibition of AKT1 (unknown origin) in presence of ATP by ELISA. A general note: An ELISA detects its analyte on a solid surface through an enzyme-linked reagent.
Assay [10] relates to IGROV-1. Nature of the assay: Antiproliferative activity against human IGROV-1 cells assessed as inhibition of cell growth incubated for 72 hrs in serum-free medium by Coulter counter assay. It counts as functional, cell-based. Particulars: IGROV-1, 72 h.
In assay [11] the test system is Hep 3B2. Nature of the assay: Cytotoxicity against human Hep3B cells assessed as cell growth inhibition by MTT colorimetric assay. It is filed as functional, cell-based.
Assay [12] relates to Ca9-22. The assay is described as follows: Cytotoxicity against human Ca9-22 cells assessed as cell growth inhibition by MTT colorimetric assay. It counts as functional, cell-based.
Assay [13] concerns HepG2. Nature of the assay: Cytotoxicity against human HepG2 cells assessed as cell growth inhibition by MTT colorimetric assay. It is filed as functional, cell-based.
For assay [14], the system named is MDA-MB-231. Nature of the assay: Cytotoxicity against human MDA-MB-231 cells assessed as cell growth inhibition by MTT colorimetric assay. It is filed as functional, cell-based.
The subject of assay [15] is AGS. Nature of the assay: Antiproliferative activity against human AGS cells assessed as inhibition of cell growth incubated for 48 hrs by MTT assay. It counts as functional, cell-based.
Assay [16] has as its system MCF7. Nature of the assay: Antiproliferative activity against human MCF7 cells assessed as inhibition of cell growth incubated for 48 hrs by MTT assay. It counts as functional, cell-based.
The subject of assay [17] is HCT-116. The assay is described as follows: Antiproliferative activity against human HCT-116 cells assessed as inhibition of cell growth incubated for 48 hrs by MTT assay. It is filed as functional, cell-based.
Assay [18] concerns SF-268. The assay is described as follows: Antiproliferative activity against human SF-268 cells assessed as inhibition of cell growth incubated for 48 hrs by MTT assay. It counts as functional, cell-based.
Assay [19] relates to NCI-H460. The assay is described as follows: Antiproliferative activity against human NCI-H460 cells assessed as inhibition of cell growth incubated for 48 hrs by MTT assay. It counts as functional, cell-based.
Assay [20] concerns Lung NSCLC-N6 cell-line. The assay is described as follows: Cytotoxicity against human Lung NSCLC-N6 cell-line by MTT colorimetric assay. It counts as functional, cell-based.
The subject of assay [21] is NUGC-3. The assay is described as follows: Cytotoxicity against human NUGC-3 cells assessed as cell growth inhibition incubated for 30 mins by MTT assay. Conditions: NUGC-3, 0.5 h. It counts as functional, cell-based.

Molecules are shown by their SMILES. In brackets after ≈: the same amount, converted by molar mass.

Sequence of RAC-alpha serine/threonine-protein kinase (P31749 whole entry): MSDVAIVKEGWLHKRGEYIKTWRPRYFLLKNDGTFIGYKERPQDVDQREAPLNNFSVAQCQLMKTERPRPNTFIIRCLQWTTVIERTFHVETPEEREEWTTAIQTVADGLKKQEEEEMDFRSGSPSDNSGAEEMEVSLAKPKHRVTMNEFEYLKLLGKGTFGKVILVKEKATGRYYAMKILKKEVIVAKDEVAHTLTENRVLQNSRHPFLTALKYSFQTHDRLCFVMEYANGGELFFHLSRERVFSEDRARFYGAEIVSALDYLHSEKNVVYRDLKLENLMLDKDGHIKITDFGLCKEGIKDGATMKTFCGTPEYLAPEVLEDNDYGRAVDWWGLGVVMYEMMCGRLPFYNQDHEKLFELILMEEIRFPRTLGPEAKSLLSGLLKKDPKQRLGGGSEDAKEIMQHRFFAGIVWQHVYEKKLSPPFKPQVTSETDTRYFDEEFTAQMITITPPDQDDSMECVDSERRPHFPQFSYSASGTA

As usually defined, the IC50 is the point on the concentration scale where inhibition reaches its midpoint. Consider `CCCCCCCCCCCCCCCC(=O)OCC(CO[C@H]1O[C@H](CS(=O)(=O)[O-])[C@@H](O)[C@H](O)[C@H]1O)OC(=O)CCCCCCCCCCCCCCC.[Na+]` (some centres not stated), for which, in assay [1], the IC50 was determined as 83.5 mg/L.
The same measure, in the same setting: as for `CCCCCCCCCCCCCCCCCC(=O)OCC(CO[C@H]1O[C@H](CS(=O)(=O)[O-])[C@@H](O)[C@H](O)[C@H]1O)OC(=O)CCCCCCCCCCCCCCCCC.[Na+]` (some centres not stated), the figure is 75.5 mg/L.
In the case of `CCCCCCCCCCCCCCCCCC(=O)OCC(O)CO[C@@H]1O[C@H](CS(=O)(=O)O)[C@@H](O)[C@H](O)[C@H]1O` (some centres not stated), in assay [2], the CC50 is 135 µM.
Regarding `CCCCCCCCCCCCCCCCCC(=O)OCC(O)CO[C@H]1O[C@H](CS(=O)(=O)O)[C@@H](O)[C@H](O)[C@H]1O` (some centres not stated), in [2], the CC50 amounted to 150 µM.
For `C/C=C(\C)[C@H](O[C@@H]1O[C@H](CO)[C@@H](O)[C@H](O)[C@H]1O)[C@H](C)/C=C(C)/C=C/C/C(C)=C/Cc1nc(OC)c(OC)c(O)c1C`, the IC50 in assay [3] stood at 0.36 mg/L (≈ 0.623 µM); in assay [4], 0.0074 mg/L (≈ 0.0128 µM); in assay [5], 0.25 mg/L (≈ 0.433 µM); in assay [6], 0.11 mg/L (≈ 0.19 µM); in [7], 0.019 mg/L (≈ 0.0329 µM).
For `COc1nc(C/C=C(\C)C/C=C/C(C)=C/[C@@H](C)[C@@H](O[C@@H]2O[C@H](CO)[C@@H](O)[C@H](O)[C@H]2O)/C(C)=C/CO)c(C)c(O)c1OC`, in that order: 1.6 mg/L (≈ 2.69 µM), 0.21 mg/L (≈ 0.354 µM), 0.78 mg/L (≈ 1.31 µM), 0.76 mg/L (≈ 1.28 µM) and 0.066 mg/L (≈ 0.111 µM).
`CCCCCCCCCCCCCCCCCOC(=O)O[C@H](COC(=O)CCCCCCCCCCCCCCCCC)COP(=O)(O)O[C@@H]1[C@H](O)[C@H](OP(=O)(O)O)[C@@H](O)[C@H](O)[C@H]1O`: the IC50 was determined as 49 µM in assay [8], 19.7 µM in assay [9] and 3.35 µM in assay [10].
As for `CCCCCCCCCCCCOC[C@@H](COO)O[C@@H]1OC[C@@H](O)[C@@H](O)[C@@H]1O`, the IC50 in [11], in assay [12], in assay [13] and in [14] was 9.2 mg/L (≈ 22.5 µM) throughout.
On to `CCCCCCCCCCCCCCCCCC(=O)OC[C@H](COC1O[C@H](CS(=O)(=O)[O-])[C@@H](O)[C@H](O)[C@H]1O)OCC(=O)CCCCCCCCCCCCCCC.[Na+]` (some centres not stated), for which the CC50 in assay [2] was found to be 80 mg/L.
Consider `CCCCCCCCCCCCCCOC[C@@H](COO)O[C@@H]1OC[C@@H](O)[C@@H](O)[C@@H]1O`, for which the IC50 in assay [11], in assay [12], in assay [13] and in assay [14] was 9.2 mg/L (≈ 21.1 µM) throughout.
Turning to `CC/C=C\C/C=C\C/C=C\CCCCCCCC(=O)OCC(CO[C@@H]1O[C@H](CO)[C@H](O)[C@H](O)[C@H]1O)OC(=O)CCCCCCCCCCCCCCCCC` (some centres not stated), the IC50 in assay [15], in assay [16], in assay [17], in assay [18] and in assay [19] was 0.039 mg/L (≈ 0.0499 µM) in each case.
`CO[C@@H]1/C=C(\C)C[C@H](/C=C/C#C[C@H]2C[C@@H]2Cl)OC(=O)[C@@H](C)[C@]2(O)C[C@H](O[C@@H]3O[C@@H](C)[C@H](O[C@@H]4O[C@@H](C)[C@H](O)[C@@](C)(O)[C@H]4OC)[C@@](C)(O)[C@H]3OC)[C@@H](C)[C@@H](O2)[C@@H]1C`: 15.1 mg/L (≈ 18.5 µM) corresponded to half-maximal inhibition in [20] (IC50).
In the case of `CCCCCCCCCCCCCCCCCC(=O)OCC(O)CO[C@H]1O[C@H](CO)[C@@H](O)[C@H](O)[C@H]1O` (some centres not stated), the IC50 in assay [21] came to 110 µM.
Regarding `CCCCCCCCCCCCOC[C@@H](COC(C)=O)O[C@@H]1OC[C@@H](O)[C@@H](O)[C@@H]1O`, the IC50 in assay [11], in assay [12], in [13] and in assay [14] was 9.2 mg/L (≈ 21.2 µM) in each case.
